US6762181B1, “Aminomethylpyrrolidine derivatives having aromatic substituents” (Daiichi Pharmaceutical Co., Ltd., priority 1999, dated 2004)
Values after ≈ are worked out from the molar mass of the structure shown. Read-outs that look alike come from different tables or passages of the source.

Legend:
Test in all cases: Antibacterial activity (MIC), Japan Society of Chemotherapy standard method
Assay type in all cases: cell-based
[1] = test system: Pr. Vulgaris O8601
Method: (§1) Antibacterial activities of the compounds of the invention were measured in accordance with the standard method specified by the Japan Society of Chemotherapy, with the results shown in the following table as MIC values (μg/ml). In this connection, MIC values of levofloxacin (LVFX), ciprofloxacin (CPFX) and 5-amino-7-[3-(R)-[1-(S)-aminoethyl]pyrrolidin-1-yl]-6-fluoro-1-[2-(S)-fluoro-1-(R)-cyclopropyl]-8-methyl-1,4-dihydro-4-oxoquinoline-3-carboxylic acid (control drug 1) described in WO 9623782 are also shown for the sake of comparison with the MIC values of the compounds of the invention.

[2] = test system: K. pneumoniae TYPE 1
Method: as §1

[3] = test system: E. faecalis ATCC 19433
Method: as §1

[4] = test system: Ps. aeruginosa 32121
Method: as §1

[5] = test system: Ps. aeruginosa 32104
Method: as §1

[6] = test system: S. flexneri 2A 5503
Method: as §1

[7] = test system: S. epidermidis 56500
Method: as §1

[8] = test system: X. maltophilia IID 1275
Method: as §1

[9] = test system: E. coli NIHJ
Method: as §1

[10] = test system: Str. pneumoniae J24
Method: as §1

[11] = test system: Str. pyrogenes G-36
Method: as §1

[12] = test system: Ser. marcescens 10100
Method: as §1

[13] = test system: S. aureus FDA 209P
Method: as §1

[14] = test system: S. aureus 870307
Method: as §1

[15] = Proteus vulgaris, read-out: MIC
[16] = Klebsiella pneumoniae, TYPE1, K. pneumoniae TYPE 1, read-out: MIC
[17] = Enterococcus faecalis, ATCC19433, E. faecalis ATCC 19433, read-out: MIC
[18] = Pseudomonas aeruginosa, 32121, Ps. aeruginosa 32121, read-out: MIC
[19] = Pseudomonas aeruginosa, 32104, Ps. aeruginosa 32104, read-out: MIC
[20] = Shigella flexneri, 2A5503, S. flexneri 2A 5503, read-out: MIC
[21] = Staphylococcus epidermidis, read-out: MIC
[22] = Stenotrophomonas maltophilia, IID1275, X. maltophilia IID 1275, read-out: MIC
[23] = Escherichia coli, read-out: MIC
[24] = Streptococcus pneumoniae, J24, Str. pneumoniae J24, read-out: MIC
[25] = Serratia marcescens, 10100, Ser. marcescens 10100, read-out: MIC
[26] = Staphylococcus aureus, FDA209P, read-out: MIC
[27] = Staphylococcus aureus, 870307, S. aureus 870307, read-out: MIC

Compound	MIC [1] [µg/mL]	MIC ([2]; K. pneumoniae TYPE 1) [µg/mL]	MIC ([3]; E. faecalis ATCC 19433) [µg/mL]	MIC ([4]; Ps. aeruginosa 32121) [µg/mL]	MIC ([5]; Ps. aeruginosa 32104) [µg/mL]	MIC ([6]; S. flexneri 2A 5503)	MIC [7]	MIC ([8]; X. maltophilia IID 1275) [µg/mL]	MIC [9]	MIC ([10]; Str. pneumoniae J24)	MIC [11]	MIC ([12]; Ser. marcescens 10100) [µg/mL]	MIC [13]	MIC ([14]; S. aureus 870307)	MIC [2, 16] [µg/mL]	MIC [4, 18] [µg/mL]	MIC [5, 19] [µg/mL]	MIC [7, 21] [µg/mL]	MIC [8, 22] [µg/mL]	MIC [10, 24] [µg/mL]	also measured
C[C@H]1COc2c(N3CC[C@@H](C(N)c4ccccc4)C3)c(F)cc3c(=O)c(C(=O)O)cn1c23 (stereo partly drawn) [Example 4, 10-[3-(R)-(1-Amino-1-Phenylmethyl)-1-Pyrrolidinyl]-9-Fluoro-2,3-Dihydro-3-(S)-Methyl-7-Oxo-7H-Pyrido [1,2,3,-de] [1,4] Benzoxazine-6-Carboxylic Acid]	0.013 (≈ 0.0297 µM)	0.025 (≈ 0.0571 µM)	0.006 (≈ 0.0137 µM)	0.05 (≈ 0.114 µM)	0.1 (≈ 0.229 µM)	≦0.003 μg/ml	≦0.003 μg/ml	0.05 (≈ 0.114 µM)	≦0.003 μg/ml	≦0.003 μg/ml	≦0.003 μg/ml	0.025 (≈ 0.0571 µM)	≦0.003 μg/ml	≦0.003 μg/ml	–	–	–	–	–	–	–
Cc1c(N2CC[C@@H](C(N)c3ccccc3)C2)c(F)c(N)c2c(=O)c(C(=O)O)cn([C@@H]3C[C@@H]3F)c12 (stereo partly drawn) [Example 5, 5-Amino-7-[3-(R)-(1-Amino-1-Phenylmethyl)-1-Pyrrolidinyl]-6-Fluoro-1-[2-(S)-Fluoro-1-(R)-Cyclopropyl]-1,4-Dihydro-8-Methyl-4-Oxoquinoline-3-Carboxylic Acid]	–	–	–	–	–	–	–	–	–	–	–	–	–	–	0.013 (≈ 0.0277 µM)	0.025 (≈ 0.0534 µM)	0.1 (≈ 0.213 µM)	≤ 0.003	0.025 (≈ 0.0534 µM)	≤ 0.003	MIC [1, 15]: 0.013 µg/mL (≈ 0.0277 µM); MIC [3, 17]: 0.006 µg/mL (≈ 0.0128 µM); MIC [6, 20]: ≤ 0.003 µg/mL; MIC [9, 23]: ≤ 0.003 µg/mL; MIC ([11]; read-out: MIC): ≤ 0.003 µg/mL; MIC [12, 25]: 0.025 µg/mL (≈ 0.0534 µM); MIC [13, 26]: ≤ 0.003 µg/mL; MIC [14, 27]: ≤ 0.003 µg/mL
COc1c(N2CC[C@@H](C(N)c3ccccc3)C2)ccc2c(=O)c(C(=O)O)cn([C@@H]3C[C@@H]3F)c12 (stereo partly drawn) [Example 6, 7-[3-(R)-(1-Amino-1-Phenylmethyl)-1-Pyrrolidinyl]-1-[2-(S)-Fluoro-1-(R)-Cyclopropyl]-1,4-Dihydro-8-Methoxy-4-Oxoquinoline-3-Carboxylic Acid]	–	–	–	–	–	–	–	–	–	–	–	–	–	–	0.05 (≈ 0.111 µM)	0.1 (≈ 0.221 µM)	0.2 (≈ 0.443 µM)	0.006 (≈ 0.0133 µM)	0.1 (≈ 0.221 µM)	≤ 0.003	MIC [1, 15]: 0.1 µg/mL (≈ 0.221 µM); MIC [3, 17]: 0.025 µg/mL (≈ 0.0554 µM); MIC [6, 20]: 0.013 µg/mL (≈ 0.0288 µM); MIC [9, 23]: 0.006 µg/mL (≈ 0.0133 µM); MIC ([11]; read-out: MIC): ≤ 0.003 µg/mL; MIC [12, 25]: 0.1 µg/mL (≈ 0.221 µM); MIC [13, 26]: ≤ 0.003 µg/mL; MIC [14, 27]: 0.013 µg/mL (≈ 0.0288 µM)
COc1ccccc1C(N)[C@@H]1CCN(c2c(F)c(N)c3c(=O)c(C(=O)O)cn([C@@H]4C[C@@H]4F)c3c2F)C1 (stereo partly drawn) [Example 8, 5-Amino-7-[3-(R)-(1-Amino-1-(2-Methoxy) Phenylmethyl)-1-Pyrrolidinyl]-6,8-Difluoro-1-[2-(S)-Fluoro-1-(R)-Cyclopropyl]-1,4-Dihydro-4-Oxoquinoline-3-Carboxylic Acid]	0.2 (≈ 0.398 µM)	0.05 (≈ 0.0995 µM)	0.025 (≈ 0.0498 µM)	0.1 (≈ 0.199 µM)	0.2 (≈ 0.398 µM)	0.006 µg/mL (≈ 0.0119 µM)	≦0.003 μg/ml	0.2 (≈ 0.398 µM)	≦0.003 μg/ml	≦0.003 μg/ml	≦0.003 μg/ml	0.2 (≈ 0.398 µM)	≦0.003 μg/ml	0.013 µg/mL (≈ 0.0259 µM)	–	–	–	–	–	–	–
Nc1c(F)c(N2CC[C@@H](C(N)c3ccc(F)cc3F)C2)c(F)c2c1c(=O)c(C(=O)O)cn2[C@@H]1C[C@@H]1F (stereo partly drawn) [Example 10, 5-Amino-7-[3-(R)-(1Amino-1-(2,4-Difluoro) Phenylmethyl)-1-Pyrrolidinyl]-6,8-Difluoro-1-[2-(S)-Fluoro-1-(R)-Cyclopropyl]-1,4-Dihydro-4-Oxoquinoline-3-Carboxylic Acid]	0.1 (≈ 0.197 µM)	0.013 (≈ 0.0256 µM)	0.025 (≈ 0.0492 µM)	0.1 (≈ 0.197 µM)	0.2 (≈ 0.393 µM)	≦0.003 μg/ml	≦0.003 μg/ml	0.05 (≈ 0.0983 µM)	≦0.003 μg/ml	≦0.003 μg/ml	≦0.003 μg/ml	0.1 (≈ 0.197 µM)	≦0.003 μg/ml	0.006 µg/mL (≈ 0.0118 µM)	–	–	–	–	–	–	–
Nc1c(F)c(N2CC[C@@H](C(N)c3ccco3)C2)c(F)c2c1c(=O)c(C(=O)O)cn2[C@@H]1C[C@@H]1F (stereo partly drawn) [Example 11, 5-Amino-7-{3-(R)-[1-amino-1-(2-furyl)methyl]-1-pyrrolidinyl}-6,8-difluoro-1-[2-(S)-fluoro-1-(R)-cyclopropyl]-1,4-dihydro-4-oxoquinoline-3-carboxylic acid]	0.05 (≈ 0.108 µM)	–	0.025 (≈ 0.0541 µM)	–	–	≦0.003 μg/ml	–	–	≦0.003 μg/ml	–	0.013 µg/mL (≈ 0.0281 µM)	–	–	0.025 µg/mL (≈ 0.0541 µM)	0.025 (≈ 0.0541 µM)	0.05 (≈ 0.108 µM)	0.2 (≈ 0.432 µM)	≤ 0.003	0.05 (≈ 0.108 µM)	0.006 (≈ 0.013 µM)	MIC [12, 25]: 0.05 µg/mL (≈ 0.108 µM); MIC [13, 26]: ≤ 0.003 µg/mL
